Results: patent publication US11160767B2, “4,4′-trans-dihydroxystilbene for use in treating cancer” (The George Washington University, a Congressionally …, priority 2017, dated 2021)

What was measured:
HCT116 cells [1] = test: Cell-cycle assay; assay type: cell-based, human; details: 10 μM
Method: A cell-cycle assay was conducted to study whether DHS would affect cell-cycle progression.

[2] = biological target: T1, truncated-RRM2 protein (deletion of GLU147 to ILE166) (Homo sapiens, UniProt P31350, DEL147-166); test: Thermal shift assay, truncated RRM2; assay type: cell-based; details: HCT116 cells
T1 construct: expressed in transfected cells; host or cells: HCT116
Description: To verify the DHS binding site on RRM2, a RRM2 construct with a deletion of GLU147 to ILE166 was generated. […] Since Hu is also known to interact with RRM2 protein, the effect of DHS on Hu binding to RRM2 was investigated using a cellular thermal shift assay with KB-Hu (an Hu resistant oral cancer cell line).

[3] = tested on: phosphorylated histone 2AX; test: γH2AX immunostaining; assay type: cell-based, human; details: HCT116 cells, 10 μM for 12 hours
HCT116 cells [4] = test: Clonogenic colony formation assay; assay type: cell-based, human; details: 0 to 50 μM
Method: To confirm the cell killing effect of DHS, a clonogenic colony formation assay was conducted. […] The effect of DHS on growth of cancer cell lines was analyzed using The NCI Development Therapeutics Program (DTP).

purified RRM2 protein = purified RRM2 protein (Homo sapiens, UniProt P31350); test: In vitro thermal shift assay with purified protein; assay type: binding; details: purified RRM1 and RRM2 mixed, incubated 4 hours
Method: To investigate binding of DHS to RRM1 and RRM2, a thermal shift assay was performed in HCT116 cells treated with DMSO (vehicle), resveratrol, DHS, gemcitabine, or hydroxyurea (Hu). Gemcitabine is known to bind RRM1 (Plunkett et al., 1995 and Chen et al., 2011), and Hu has been reported to bind RRM2 (Thelander et al., 1985). […] DHS stabilized RRM2 protein in a dose responsive manner (5 to 20 μM DHS; FIG. 11A). To rule out nonspecific effects of DHS on RRM2, an in vitro thermal shift assay was conducted. Purified RRM1 and RRM2 were mixed and then incubated with DHS or Hu for 4 hours before performing the assay.

[5] = tested on: phosphor-Chk1 (pChk1, Serine 345); test: DNA damage markers by Western blot; assay type: cell-based, human; details: HCT116 cells, 10 μM for 20 minutes
Method: Western blot analysis. Compound-treated cells were harvested and lysed. Protein extracts were subjected to electrophoresis in a SDS-polyacrylamide gel. The resolved proteins were transferred onto polyvinylidene difluoride membranes (Amersham Biosciences, Piscataway, N.J., US). After the blocking step, membranes were incubated with primary IgG antibodies, washed, and then incubated with horseradish peroxidase-conjugated anti-rabbit IgG or anti-mouse IgG secondary antibodies. Western blot signals were visualized by chemiluminescence using SuperSignal West Pico chemiluminescence reagent (Pierce, Rockford, Ill., US).
To investigate whether inhibition of DNA replication by DHS can trigger DNA damage, the DNA damage markers phosphor-Chk1 (pChk1, Serine 345) and phosphor-Chk2 (pChk2, Threonine 68) were analyzed in DHS-treated HCT116 cells. […] A comet assay was next used to test if DNA double strand breaks are induced by DHS.

PANC-1 = test: In vitro cytotoxicity (SRB assay), PANC-1; assay type: cell-based; details: Homo sapiens, 72 hours
Method: Cell lines and cell culture. HCT116, U205, PANC-1, MDA-231 cell lines were purchased from the American Type Culture Collection (Rockville, Md., US). Cells were cultured in the DMEM medium (Lonza, Basel, Switzerland) containing 10% fetal bovine serum (Gibco, Grand Island, N.Y., US), 100 Units/ml penicillin, 100 Units/mL streptomycin, […] L-glutamine (Gibco, Grand Island, N.Y., US) at 37° C. in a humidified atmosphere with 5% CO2.
In vitro cytotoxicity assays. […] SRB assay (Vichai and Kirtikara, 2006) was performed and the absorbance at 510 nm was read with a plate reader. The proliferation rate was calculated according to the Manufacturer's instruction. The IC50 value for each compound was determined from dose-effect relationship using the CompuSyn software (version 1.0.1; CompuSyn, Inc, Paramus, N.J.) (Chou, 2006). Cell proliferating doubling time was monitored over a period of 72 hours.

KB, KB-Gem and KB-Hu = test: Cell survival of KB and resistant sublines; assay type: cell-based
Method: An oral cancer cell line, KB, and its gemcitabine-resistant and hydroxyurea resistant sublines, KB-Gem and KB-Hu, respectively, were treated with gemcitabine (FIG. 15A), hydroxyurea (FIG. 15B), or DHS (FIG. 15C).
Next, the effect of combined treatment with DHS and Gemcitabine or Hydroxyurea was investigated.

HCT116 cells [6] = test: DNA fiber assay; assay type: cell-based, human
Method: Thus, the effect of DHS on DNA replication and cell cycle progression was investigated. Replication fork speeds were examined by DNA fiber assay (FIG. 7A). Briefly, DHS, hydroxyurea (Hu), or Aphidicolin (Aph) was added to HCT116 cells 2 hours prior to labeling of DNA with iododeoxyuridine (IdU) and/or chlorodeoxyuridine (CldU).

purified RRM2 protein, sequence (P31350 whole entry, species assumed): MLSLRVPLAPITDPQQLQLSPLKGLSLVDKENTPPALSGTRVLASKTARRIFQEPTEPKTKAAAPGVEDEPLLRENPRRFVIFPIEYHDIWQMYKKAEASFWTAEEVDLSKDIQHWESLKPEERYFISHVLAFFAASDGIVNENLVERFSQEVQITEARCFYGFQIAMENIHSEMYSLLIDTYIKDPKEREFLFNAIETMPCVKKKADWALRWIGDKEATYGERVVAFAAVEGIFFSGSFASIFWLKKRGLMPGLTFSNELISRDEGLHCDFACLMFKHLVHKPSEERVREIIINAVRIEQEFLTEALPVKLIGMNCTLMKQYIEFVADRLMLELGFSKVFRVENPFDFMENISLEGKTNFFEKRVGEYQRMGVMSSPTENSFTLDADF
T1 sequence (P31350 with tags, fused parts or gaps DEL147-166): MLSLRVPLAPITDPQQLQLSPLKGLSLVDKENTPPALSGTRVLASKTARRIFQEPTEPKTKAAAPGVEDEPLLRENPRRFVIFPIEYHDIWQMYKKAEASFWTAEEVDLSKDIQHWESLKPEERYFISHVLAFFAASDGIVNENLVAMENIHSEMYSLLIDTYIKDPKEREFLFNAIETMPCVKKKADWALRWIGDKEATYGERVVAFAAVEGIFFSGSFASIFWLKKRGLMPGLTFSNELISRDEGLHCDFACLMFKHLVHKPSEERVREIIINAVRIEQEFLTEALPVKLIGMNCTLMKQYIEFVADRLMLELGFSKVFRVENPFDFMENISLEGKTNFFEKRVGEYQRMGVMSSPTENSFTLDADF

Stabilisation of purified RRM2 after high temperature incubation (purified RRM2 protein): stabilized purified RRM2 protein
Structure (SMILES): Oc1ccc(/C=C/c2ccc(O)cc2)cc1 [DHS, 4,4′-trans-dihydroxystilbene]
Effect on cell-cycle progression (HCT116 cells [1]): robust S-phase arrest | Thermal stability of truncated RRM2 [2]: not able to maintain thermal stability of the truncated-RRM2 protein | Levels of γH2AX [3]: Increased levels of phosphorylated histone 2AX | Colony formation (HCT116 cells [4]): stronger suppression effect on HCT116 cell colony formation than resveratrol | DNA damage (phosphorylated CHK1, pSerine 345) [5]: more potent than resveratrol and the other analogs | IC50 (PANC-1): 22 ± 6.42 µM | Cell survival of resistant sublines (KB, KB-Gem and KB-Hu; KB, KB-Gem, KB-Hu, DHS alone): overcame gemcitabine and hydroxyurea resistance | Resensitisation to gemcitabine and hydroxyurea (KB, KB-Gem and KB-Hu; KB-Gem and KB-Hu, 10 μM DHS): resensitized cultured KB-gem and KB-Hu cell lines to gemcitabine and hydroxyurea | Rate of replication fork progression (folk speed) (HCT116 cells [6]): significantly reduced | DNA replication stalling (HCT116 cells [6]; added 2 hours prior to labeling): dramatically caused DNA replication stalling
